Data: ChEMBL document CHEMBL5365532, “Discovery of Triazinone Derivatives as Novel, Specific, and Direct NLRP3 Inflammasome Inhibitors for the Treatment of DSS-Induced Ulcerative Colitis” (J Med Chem, 2023)
Activity calls are given as the source filed them. The calls are words filed in the database; no cut-off is given here.

Tests used:
[1] = target: NACHT, LRR and PYD domains-containing protein 3 (Mus musculus, UniProt Q8R4B8); test: Inhibition of NLRP3 inflammasome in C57BL/6 mouse BMDM cells assessed as inhibition of LPS/nigericin-induced IL-1 beta secretion pretreated with LPS for 3 hrs followed by incubation with compound for 40 mins and later stimulated with nigericin for 35 mins by ELISA; assay type: cell-based
Sequence of NACHT, LRR and PYD domains-containing protein 3 (Q8R4B8 whole entry, the tested form may be a part): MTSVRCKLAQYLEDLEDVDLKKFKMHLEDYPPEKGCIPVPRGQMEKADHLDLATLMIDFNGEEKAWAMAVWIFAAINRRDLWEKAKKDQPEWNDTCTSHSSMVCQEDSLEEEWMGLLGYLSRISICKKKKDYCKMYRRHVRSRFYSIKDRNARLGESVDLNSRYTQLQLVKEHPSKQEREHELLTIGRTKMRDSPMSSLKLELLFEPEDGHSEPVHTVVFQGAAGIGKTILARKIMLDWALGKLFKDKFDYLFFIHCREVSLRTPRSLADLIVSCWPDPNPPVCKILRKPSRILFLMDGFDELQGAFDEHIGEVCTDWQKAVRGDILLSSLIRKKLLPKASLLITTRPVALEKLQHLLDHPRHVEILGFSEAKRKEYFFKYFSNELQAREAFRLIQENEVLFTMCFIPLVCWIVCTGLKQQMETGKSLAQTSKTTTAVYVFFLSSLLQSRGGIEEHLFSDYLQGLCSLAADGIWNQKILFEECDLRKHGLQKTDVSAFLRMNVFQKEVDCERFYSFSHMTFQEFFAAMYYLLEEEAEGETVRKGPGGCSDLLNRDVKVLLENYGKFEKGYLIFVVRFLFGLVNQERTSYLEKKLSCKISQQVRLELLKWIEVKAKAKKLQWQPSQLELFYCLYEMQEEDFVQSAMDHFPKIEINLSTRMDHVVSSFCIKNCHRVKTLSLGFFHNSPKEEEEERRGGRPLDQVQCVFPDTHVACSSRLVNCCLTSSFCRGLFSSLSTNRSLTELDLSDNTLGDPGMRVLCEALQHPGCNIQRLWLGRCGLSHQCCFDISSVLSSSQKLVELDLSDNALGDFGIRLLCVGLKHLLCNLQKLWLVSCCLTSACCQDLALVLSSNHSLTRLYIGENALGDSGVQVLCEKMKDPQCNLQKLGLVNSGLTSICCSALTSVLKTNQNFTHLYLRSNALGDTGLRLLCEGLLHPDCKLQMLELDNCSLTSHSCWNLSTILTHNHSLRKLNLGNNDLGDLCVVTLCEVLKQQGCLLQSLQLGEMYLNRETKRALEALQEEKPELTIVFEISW

[2] = system: THP-1; test: Cytotoxicity against PMA-differentiated human THP-1 cells assessed as cell viability at 0.16 to 20 uM incubated for 24 hrs by CCK8 assay; assay type: toxicity, cell-based; conditions: thp-1, 24 h, dose 0.16-20 µM
[3] = system: BMDM; test: Cytotoxicity against C57BL/6 mouse BMDM cells assessed as cell viability at 0.16 to 20 uM incubated for 24 hrs by CCK8 assay; assay type: toxicity, cell-based; conditions: dose 0.16-20 µM
[4] = system: THP-1; test: Effect on NLRP3 protein expression in PMA-differentiated human THP-1 cells at 0.2 to 0.8 uM pretreated with LPS for 3 hrs followed by incubation with compound for 40 mins and later stimulated with nigericin for 35 mins by western blot analysis; assay type: functional, cell-based; conditions: dose 0.2-0.8 µM, time 75.0 min
[5] = system: THP-1; test: Effect on ASC protein expression in PMA-differentiated human THP-1 cells at 0.2 to 0.8 uM pretreated with LPS for 3 hrs followed by incubation with compound for 40 mins and later stimulated with nigericin for 35 mins by western blot analysis; assay type: functional, cell-based; conditions: dose 0.2-0.8 µM, time 75.0 min
[6] = system: THP-1; test: Effect on pro-IL-1beta protein expression in PMA-differentiated human THP-1 cells at 0.2 to 0.8 uM pretreated with compound for 40 mins followed by LPS challenge for 3 hrs by western blot analysis; assay type: functional, cell-based; conditions: dose 0.2-0.8 µM, time 220.0 min
[7] = system: THP-1; test: Effect on NLRP3 protein expression in PMA-differentiated human THP-1 cells at 0.2 to 0.8 uM pretreated with compound for 40 mins followed by LPS challenge for 3 hrs by western blot analysis; assay type: functional, cell-based; conditions: dose 0.2-0.8 µM, time 220.0 min
[8] = target: NACHT, LRR and PYD domains-containing protein 3 (Mus musculus) (UniProt Q8R4B8); test: Inhibition of NLRP3 inflammasome in C57BL/6 mouse BMDM cells assessed as inhibition of LPS/alum-induced IL-1 beta secretion at 0.2 to 0.8 uM pretreated with LPS for 3 hrs followed by incubation with compound for 40 mins and later stimulated with alum for 4 hrs by ELISA; assay type: cell-based; conditions: dose 0.2-0.8 µM, time 280.0 min
Sequence of NACHT, LRR and PYD domains-containing protein 3 (Mus musculus) (Q8R4B8 whole entry, the tested form may be a part): as above

[9] = target: NACHT, LRR and PYD domains-containing protein 3 (Mus musculus) (UniProt Q8R4B8); test: Inhibition of NLRP3 inflammasome in C57BL/6 mouse BMDM cells assessed as inhibition of LPS/MSU-induced IL-1 beta secretion at 0.2 to 0.8 uM pretreated with LPS for 3 hrs followed by incubation with compound for 40 mins and later stimulated with MSU for 12 hrs by ELISA; assay type: cell-based; conditions: dose 0.2-0.8 µM, time 760.0 min
[10] = target: NLR family CARD domain-containing protein 4 (Mus musculus) (UniProt Q3UP24); test: Inhibition of NLRC4 inflammasome in C57BL/6 mouse BMDM cells assessed as inhibition of LPS/flagellin-induced IL-1 beta secretion at 0.2 to 0.8 uM pretreated with LPS for 3 hrs followed by incubation with compound for 40 mins and later stimulated with flagellin for 6 hrs by ELISA; assay type: cell-based; conditions: dose 0.2-0.8 µM, time 400.0 min
Sequence of NLR family CARD domain-containing protein 4 (Mus musculus) (Q3UP24 whole entry, the tested form may be a part): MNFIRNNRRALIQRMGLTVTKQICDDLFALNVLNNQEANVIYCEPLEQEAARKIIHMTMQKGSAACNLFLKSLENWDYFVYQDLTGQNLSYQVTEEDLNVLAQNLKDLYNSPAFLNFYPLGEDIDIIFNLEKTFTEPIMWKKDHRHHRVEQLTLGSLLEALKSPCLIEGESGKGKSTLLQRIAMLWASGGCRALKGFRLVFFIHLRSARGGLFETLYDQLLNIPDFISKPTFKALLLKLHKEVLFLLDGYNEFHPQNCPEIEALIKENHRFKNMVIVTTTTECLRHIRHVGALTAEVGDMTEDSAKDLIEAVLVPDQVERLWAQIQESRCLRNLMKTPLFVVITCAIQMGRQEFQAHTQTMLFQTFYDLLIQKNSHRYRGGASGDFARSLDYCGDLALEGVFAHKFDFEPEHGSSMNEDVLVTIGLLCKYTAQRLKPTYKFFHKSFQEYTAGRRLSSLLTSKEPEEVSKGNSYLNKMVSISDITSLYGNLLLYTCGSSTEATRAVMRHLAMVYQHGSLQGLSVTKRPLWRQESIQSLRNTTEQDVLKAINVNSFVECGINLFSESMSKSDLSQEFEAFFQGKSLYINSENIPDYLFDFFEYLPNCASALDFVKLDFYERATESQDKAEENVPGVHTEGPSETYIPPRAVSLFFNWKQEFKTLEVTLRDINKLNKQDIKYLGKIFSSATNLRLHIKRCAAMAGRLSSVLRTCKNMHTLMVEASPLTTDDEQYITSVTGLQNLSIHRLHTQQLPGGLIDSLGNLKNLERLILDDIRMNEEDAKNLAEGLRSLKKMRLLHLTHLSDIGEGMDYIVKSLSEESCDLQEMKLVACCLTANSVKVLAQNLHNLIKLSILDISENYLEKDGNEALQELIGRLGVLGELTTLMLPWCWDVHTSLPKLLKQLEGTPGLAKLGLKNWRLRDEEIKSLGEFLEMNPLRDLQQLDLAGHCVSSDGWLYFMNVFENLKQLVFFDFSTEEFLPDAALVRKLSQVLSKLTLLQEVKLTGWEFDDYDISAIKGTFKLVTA

[11] = target: T1, Interferon-inducible protein AIM2 (Mus musculus) (UniProt Q91VJ1); test: Inhibition of AIM2 inflammasome in C57BL/6 mouse BMDM cells assessed as inhibition of LPS/poly(dA:dT)-induced IL-1 beta secretion at 0.2 to 0.8 uM pretreated with LPS for 3 hrs followed by incubation with compound for 40 mins and later stimulated with poly(dA:dT) for 6 hrs by ELISA; assay type: cell-based; conditions: dose 0.2-0.8 µM, time 400.0 min
T1 sequence (whole entry): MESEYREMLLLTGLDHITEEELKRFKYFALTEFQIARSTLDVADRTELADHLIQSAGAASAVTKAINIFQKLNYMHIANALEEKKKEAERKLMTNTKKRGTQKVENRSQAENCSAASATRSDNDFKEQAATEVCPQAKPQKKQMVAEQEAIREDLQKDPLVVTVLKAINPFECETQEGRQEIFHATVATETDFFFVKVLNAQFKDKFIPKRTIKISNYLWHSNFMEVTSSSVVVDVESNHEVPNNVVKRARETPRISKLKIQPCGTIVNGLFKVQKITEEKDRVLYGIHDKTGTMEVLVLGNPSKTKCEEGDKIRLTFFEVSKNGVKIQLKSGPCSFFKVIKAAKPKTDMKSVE

[12] = system: THP-1; test: Effect on mitochondrial ROS production in PMA-differentiated human THP-1 cells at 0.2 to 45 uM pretreated with LPS for 3 hrs followed by incubation with compound for 40 mins and later stimulated with nigericin for 35 mins by MitoSOX staining based immunofluorescence analysis; assay type: functional, cell-based; conditions: dose 0.2-45 µM, time 75.0 min
[13] = system: THP-1; test: Inhibition of K+ efflux in PMA-differentiated human THP-1 cells at 0.8 to 45 uM pretreated with LPS for 3 hrs followed by incubation with compound for 40 mins and later stimulated with nigericin for 35 mins; assay type: functional, cell-based; conditions: dose 0.8-45 µM, time 75.0 min
[14] = system: THP-1; test: Inhibition of Cl- efflux in PMA-differentiated human THP-1 cells at 0.8 to 45 uM pretreated with LPS for 3 hrs followed by incubation with compound for 40 mins and later stimulated with nigericin for 35 mins; assay type: functional, cell-based; conditions: dose 0.8-45 µM, time 75.0 min
[15] = Half life in BALB/c mouse at 10 mg/kg, po; assay type: ADME, organism-based; conditions: in vivo
[16] = Apparent clearance in BALB/c mouse at 10 mg/kg, po; assay type: ADME, organism-based; conditions: in vivo
[17] = Oral bioavailability in BALB/c mouse at 10 mg/kg; assay type: ADME, organism-based; conditions: in vivo
[18] = Half life in BALB/c mouse at 10 mg/kg, iv; assay type: ADME, organism-based; conditions: in vivo
[19] = Cmax in BALB/c mouse at 10 mg/kg, iv; assay type: ADME, organism-based; design: dose 10 mg/kg, route iv; conditions: in vivo
[20] = system: Mus musculus; test: Antiinflammatory activity against DSS-induced ulcerative colitis C57BL/6 mouse model assessed as decrease in disease activity index at 20 to 30 mg/kg, ip fed with DSS for 6 days followed by administration with compound for 5 days; assay type: functional, organism-based; conditions: dose 20-30 mg/kg, time 5.0 day
[21] = system: Mus musculus; test: Antiinflammatory activity against DSS-induced ulcerative colitis C57BL/6 mouse model assessed as decrease in colon length shortening at 10 to 30 mg/kg, ip fed with DSS for 6 days followed by administration with compound for 5 days and measured on day 11; assay type: functional, organism-based; conditions: dose 10-30 mg/kg, time 5.0 day
[22] = system: Mus musculus; test: Antiinflammatory activity against DSS-induced ulcerative colitis C57BL/6 mouse model assessed as improvement in crypt deformation in colon at 10 to 30 mg/kg, ip fed with DSS for 6 days followed by administration with compound for 5 days and measured on day 11 by H and E staining based analysis; assay type: functional, organism-based; conditions: dose 10-30 mg/kg, time 5.0 day
[23] = system: Mus musculus; test: Antiinflammatory activity against DSS-induced ulcerative colitis C57BL/6 mouse model assessed as decrease in goblet cell loss in colon at 10 to 30 mg/kg, ip fed with DSS for 6 days followed by administration with compound for 5 days and measured on day 11 by H and E staining based analysis; assay type: functional, organism-based; conditions: dose 10-30 mg/kg, time 5.0 day
[24] = target: NACHT, LRR and PYD domains-containing protein 3 (Mus musculus) (UniProt Q8R4B8); test: Inhibition of NLRP3 inflammasome in C57BL/6 mouse BMDM cells assessed as inhibition of IL-1 beta secretion at 0.2 to 0.8 uM pretreated with Pam3CSK4 for 3 hrs followed by incubation with compound for 40 mins and later stimulated with cytosolic LPS for 16 hrs by ELISA; assay type: cell-based; conditions: dose 0.2-0.8 µM, time 1000.0 min

CC(C)c1nn(Cc2nnc(-c3ccc(C(F)(F)F)nc3Cl)o2)c(=O)c2cc3sc(Cl)cc3n12
IC50 [1]: 380 nM
Activity [2]: Non-Toxic
Activity [3]: Non-Toxic
Activity [4]: inactive
Activity [5]: inactive
Activity [6]: inactive
Activity [7]: inactive
inhibition [8]: Active
inhibition [9]: Active
inhibition [10]: inactive
inhibition [11]: inactive
Activity [12]: inactive
inhibition [13]: inactive
inhibition [14]: inactive
half-life [15]: 78.6 min
CL/F [16]: 144 mL/min/kg
bioavailability [17]: 22.5%
half-life [18]: 124 min
Cmax [19]: 3890 ng/mL
Activity [20]: Active
Activity [21]: Active
Activity [22]: Active
Activity [23]: Active
inhibition [24]: Active
